Patent US6630491B1, “Use of nicotinic analogs for treatment of degenerative diseases of the nervous system” (priority 1991, dated 2003)
Where a name gives a salt, the structure may show the parent alone.

Experiments:
[1] = tested on: Male Sprague Dawley albino rats; experiment: Passive avoidance behavior in nucleus basalis lesioned and unlesioned rats; format: in vivo, rat; settings: for shift (increase) in potency by lesioning: lesioned vs unlesioned animals; for shift (increase) in potency by lesioning / potency in lesioned vs unlesioned animals: passive avoidance; for potency in lesioned vs unlesioned animals: FIGS. 1 and 2; for dose that interfered with training or behavior: after lesioning; for effective dose in passive avoidance behavior: i.p. 5 min before trial and testing
Description: Male Sprague Dawley albino rats were used for all studies and were maintained in departmental animal facilities, using NIH guidelines for care of animals. Where lesioned animals were tested, lesions were induced in anesthetized animals by bilateral infusion of ibotenic acid (5 μg in 1 μl) or phosphate buffered saline (PBS) into the nucleus basalis region.
For passive avoidance behavior, animals received a moderately strong shock (0.8 m Amp) for 1 second after entering a dark room. After 24 hours, the animals were again tested to determine if they could remember to stay out of the dark room. Animals were only allowed 5 minutes to make their choice, when they were removed from the lighted chamber. For testing the effects of drugs in animals that were not lesioned, shocks were only 0.5m Amp in intensity, and the animals were allowed 72 hours until they were tested after training. In all drug-treatment studies, the drugs were injected intraperitoneally in saline diluent 5 minutes before the trial and 5 minutes before the testing period.
The effect of (−)anabaseine on passive avoidance was also determined using unlesioned animals (FIG. 3). In these experiments (−)anabaseine was injected intraperitoneally 5 min. before training and testing in the passive avoidance apparatus. Only animals that trained within 300 sec the first time were used (i.e., those animals that entered the dark compartment and received a mild foot shock).

aged rats [2] = experiment: 17-arm radial maze testing of aged rats; format: in vivo, rat; settings: 2 mg/kg 15 minutes prior to each daily trial, FIG. 4
Description: The 17 arm radial maze requires animals to remember a baited set of 8 arms out of the 17 total arms. At the start of each daily trial, rats are placed in the center of the maze and permitted to choose among the 17 arms until all 8 food rewards are taken or until fifteen minutes elapse. Those animals that reach a performance criteria of 17 arm choices on two consecutive days of testing during the first 14 days of testing are continued in testing for an additional 30 days. For such animals, only data collected after day 14 are used in the statistical analyses. Statistical analyses are done on 3 sets of data. The first is a measure of general learning: the percent correct choices (entries into baited arms) over the first 8 arm choices. The second is a measure of short term memory (working memory) calculated from the first 12 arm choices: the percent of choices into baited arms (containing food) over the total number of choices within the baited set. Working memory, an interatrial measure of short term memory, measured the rat's ability to remember which of the arms in the baited set were previously entered and the food reward taken. The third set of data measured long-term or reference memory and also was calculated from the first 12 arm choices. Reference memory, defined as an inter-trial measure, is the percent correct choices in the baited set over the total number of arm choices. […]

aged rats [3] = experiment: Lashley III maze testing of aged rats; format: in vivo, rat; settings: aged animals, 2 mg/kg before training, first two blocks of tests, FIG. 5
Description: The Lashley III maze tests an animal's ability to learn a series of left-right alternation turns. Six alternation errors are possible for any given daily trial; chance performance level is 3 errors per trial. Previous studies have shown that young adult sham operated animals quickly learn to reduce their number of alternation errors to near zero by the end of the test period. By contrast, 23 months old (Aged) sham operated animals made substantially more errors over the 25 days of testing. […] Therefore, both age- and lesion-induced learning deficits were observed. Nonetheless, all groups did improve their performance over time.
Aged animals injected with saline or DMAB-anabaseine were evaluated in the Lashley III maze (FIG. 5). […] This reflected an improvement in another memory-related behavior with this nicotine agonist.

[4] = tested on: cerebral cortical synaptosomes; experiment: Release of newly synthesized [3H]ACh from synaptosomes
Description: (§1) Neurotransmitter release from synaptosomes provides a potential marker for receptor-activity at different types of nerve terminals. Neurotransmitter release from intact slices or minces provides a marker for receptor activity at many sites on the neuron. A comparison of the effects of nicotine and other drugs on synaptosomes versus slices provides some idea as to the location of nicotinic receptors on different types of cerebral cortical neurons, as well as their cellular location.
(§2) These different types of cerebral cortical transmitter systems have been tested. The first is the cholinergic; the procedures used to load cholinergic neurons or slices with newly synthesized [3H]ACh were described previously (Meyer, et al., 1987). The second is aspartate, an excitatory amino acid which, like glutamate, is associated with memory (long term potentiation) and neuropathology (e.g., stroke). The third type of neurotransmitter is GABA, which is the predominant transmitter in the cerebral cortex and is therefore very likely to receive cholinergic innervation.
(§3) In order to measure aspartate or GABA release, tissues were incubated with 100 nM [3H] aspartate or 250 nM [3h] GABA in Krebs Ringer buffer at 37° C. for 30 minutes, then washed them in ice cold buffer. All release-incubations were at 37° C. for 15 minutes in the presence or absence of 50 mM KCl (depolarization). Radiation accumulation was also measured in slices in order to express the released levels of transmitter as % of total transmitter, since slices were somewhat variable with respect to accumulation of label. K+ induced release of transmitter was determined by subtracting the basal release from that in the presence of the elevated K+, such that only the incremental release was determined.
(§4) Neurotransmitter levels (aspartate, glutamate) and enzyme levels were assayed as described by Arendash, et al., Science, 238:952, 1987. […] ACh from synaptosomes. Also, no effect was seen on the release of [3H] aspartate from isolated terminals.

[5] = tested on: isolated terminals (synaptosomes) of cerebral cortex; experiment: Release of [3H]aspartate from isolated terminals
Description: as §1, §2, §3, §4

brain tissue slices = experiment: Aspartate release from brain tissue slices; settings: for aspartate release, dose relation: except at one low concentration, FIGS. 6 and 7
Description: as §2, §3
The fact that nicotine […] without increasing basal release as well as K+ induced release is surprising. One hypothesis is that nicotine stimulates another type of neuron (presumably excitatory) to dis-inhibit the release of aspartate; this dis-inhibition would not be seen except when the aspartate neuron itself was activated by depolarization.

[6] = Water solubility (observation during synthesis); format: physicochemical
Description: The lithium enolate of 3nicotinoyl2-piperidone (4.94w) of step 1 was added slowly to a round bottom flask containing 30 mL of concentrated HCl which was chilled in an ice bath and stirred. The enolate was not readily soluble. The reaction mixture was heated at reflux under nitrogen overnight to effect the hydrolysis and decarboxylation. […] The reaction should not be diluted with too much aqueous acid or the product will not crystallize during the work up.

cortical slices [7] = experiment: [3H]ACh release from cortical slices
Description: as §2, §3
This pattern was also observed with [3H]ACh release and [3H]GABA release from cortical slices. Nicotine (100 nM) increased the K+ induced release of ACh but reduced the K+induced GABA release from slices, while anabaseine (1 μM) had no effect on either process. […] Thus, it appears that the ability of nicotinic types of compounds to modulate neurotransmitter release is not mediated through one of the receptors with high affinity for anabaseine, or DMAB-anabaseine.

cortical slices [8] = experiment: [3H]GABA release from cortical slices
Description: as §2, §3
This pattern was also observed with [3H]ACh release and [3H]GABA release from cortical slices. […]

[9] = tested on: vertebrate neuromuscular nicotinic acetylcholine receptors; settings: Kem, Amer.Zoologist, 25:99, 1985; cited from earlier work
[10] = even in animals with reduced neocortical cholinergic activity

Chain of vertebrate neuromuscular nicotinic acetylcholine receptors (P02708 21-457): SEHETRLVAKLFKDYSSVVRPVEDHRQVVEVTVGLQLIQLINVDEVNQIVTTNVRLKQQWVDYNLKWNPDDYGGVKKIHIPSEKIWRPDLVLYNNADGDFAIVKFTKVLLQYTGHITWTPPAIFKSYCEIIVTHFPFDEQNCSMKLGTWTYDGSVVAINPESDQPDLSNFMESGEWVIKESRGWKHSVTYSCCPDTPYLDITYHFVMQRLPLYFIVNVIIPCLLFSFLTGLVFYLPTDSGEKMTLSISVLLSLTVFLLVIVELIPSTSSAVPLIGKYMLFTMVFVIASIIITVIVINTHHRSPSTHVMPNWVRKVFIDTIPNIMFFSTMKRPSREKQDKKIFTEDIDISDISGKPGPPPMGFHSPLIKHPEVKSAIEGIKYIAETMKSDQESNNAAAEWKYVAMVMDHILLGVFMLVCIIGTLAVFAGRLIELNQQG
Chain of vertebrate neuromuscular nicotinic acetylcholine receptors (P11230 24-501 partner): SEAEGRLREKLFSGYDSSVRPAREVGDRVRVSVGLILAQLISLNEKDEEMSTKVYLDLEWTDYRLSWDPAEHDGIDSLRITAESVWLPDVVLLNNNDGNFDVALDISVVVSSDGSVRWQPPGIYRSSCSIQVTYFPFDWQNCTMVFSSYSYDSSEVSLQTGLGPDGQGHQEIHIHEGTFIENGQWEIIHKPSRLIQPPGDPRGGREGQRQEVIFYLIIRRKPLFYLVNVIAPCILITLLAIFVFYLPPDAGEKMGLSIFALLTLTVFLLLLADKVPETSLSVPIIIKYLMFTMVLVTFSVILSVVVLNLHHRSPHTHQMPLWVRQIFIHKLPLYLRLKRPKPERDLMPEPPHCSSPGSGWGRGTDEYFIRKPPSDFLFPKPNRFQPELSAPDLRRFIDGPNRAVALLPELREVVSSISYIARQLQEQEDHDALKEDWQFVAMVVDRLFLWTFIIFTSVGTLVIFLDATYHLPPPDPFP
Chain of vertebrate neuromuscular nicotinic acetylcholine receptors (Q07001 22-517 partner): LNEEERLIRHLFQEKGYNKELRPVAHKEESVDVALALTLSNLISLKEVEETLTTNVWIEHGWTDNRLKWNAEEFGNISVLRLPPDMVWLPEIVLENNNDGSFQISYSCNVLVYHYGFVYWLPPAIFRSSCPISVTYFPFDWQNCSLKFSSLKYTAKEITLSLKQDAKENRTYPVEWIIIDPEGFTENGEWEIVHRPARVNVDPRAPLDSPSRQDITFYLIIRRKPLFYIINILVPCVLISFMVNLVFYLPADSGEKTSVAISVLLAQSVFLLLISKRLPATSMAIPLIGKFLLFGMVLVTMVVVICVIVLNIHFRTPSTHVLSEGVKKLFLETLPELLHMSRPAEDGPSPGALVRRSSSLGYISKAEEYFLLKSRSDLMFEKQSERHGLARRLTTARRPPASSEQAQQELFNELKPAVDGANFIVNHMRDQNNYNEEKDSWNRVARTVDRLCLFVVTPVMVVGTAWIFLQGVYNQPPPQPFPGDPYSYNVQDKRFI

SMILES	effect on passive avoidance (memory-related) behavior [1, 10]	shift (increase) in potency by lesioning [1]	potency in lesioned vs unlesioned animals [1]	50 mM KCl induced release of newly synthesized [3H]ACh [4]	basal release of newly synthesized [3H]ACh [4]	release of [3H]aspartate [5]	aspartate release, dose relation (brain tissue slices)	dose that interfered with training or behavior [1] [mg/kg]	other results
CN(C)c1ccc(C=C2CCCN=C2c2cccnc2)cc1 [DMAB-anabaseine, 3-[p-(dimethylamino)benzylidene]-3,4,5,6-tetrahydro-2,3′-bipyridine]	can improve this type of memory-related behavior	2-2.5 fold	more potent in lesioned then in unlesioned animals	no effect	no effect	no effect	did not increase aspartate release in a dose-related manner		measure of long term memory (aged rats [2]): improved; short term memory (aged rats [2]): without affecting; number of errors in the maze (aged rats [3]): reduced the number of errors
c1cncc(C2=NCCCC2)c1 [anabaseine dihydrochloride]									water solubility [6]: very water soluble
CN1CCCC1c1cccnc1 (stereo not shown) [nicotine, reference compound]				no effect	no effect	no effect		0.2	effective dose in passive avoidance behavior ([1]; nucleus basalis lesioned animals): 0.02 mg/kg; effective dose in passive avoidance behavior ([1]; unlesioned animals): 0.05 mg/kg; K+ induced release of aspartate (brain tissue slices; 100 nM, FIG. 6): increased; spontaneous release of transmitter (aspartate) (brain tissue slices; 100 nM, FIG. 6): without affecting; basal ACh release (cortical slices [7]): increased; K+ induced release of ACh (cortical slices [7]; 100 nM): increased; K+ induced GABA release (cortical slices [8]; 100 nM): reduced
c1cncc(C2=NCCCC2)c1 [anabaseine, 2-(3-pyridyl)-3,4,5,6-tetrahydropyridine]	can improve this type of memory-related behavior	~2.5 fold	more potent in lesioned then in unlesioned animals	no effect	no effect	no effect	did not increase aspartate release in a dose-related manner	0.2	effect on passive avoidance (memory-related) behavior ([1]; unlesioned animals, i.p. 5 min before training and testing (FIG. 3)): can improve this type of memory-related behavior; K+ induced release of ACh (cortical slices [7]; 1 μM): no effect; K+ induced GABA release (cortical slices [8]; 1 μM): no effect; activation of vertebrate neuromuscular nicotinic acetylcholine receptors [9]: potent activator
